Experiment [1] deals with Thrips. Nature of the experiment: Thrips damage rating on cotton plants (Delta and Pineland variety 555), Example 1. It is filed as in vivo. The following applies: cotton variety 555, 1 = no damage, 5 = plant completely damaged (dead). An excerpt: This example illustrates the effect of a composition of the invention on cotton plant damage and plant height for cotton plants planted in soil known to have nematode (Rotylenchulus reniformis) pressure. The cotton plants utilized were commercially available Delta and Pineland variety 555.
The compositions described in Table 1 below were applied either as a seed treatment (Samples B, C, and E-G) or in furrow (Sample D) at the respective application rates set forth in Table 1.

Experiment [2] relates to Thrips. Nature of the experiment: Thrips damage rating on cotton plants (Fibermax cotton variety 960), Example 2. It is filed as in vivo. The settings on record: 1 = no damage, 5 = dead. An excerpt: This example illustrates the effect of the compositions from Table 1 for cotton plants planted in soil known to have nematode (Rotylenchulus reniformis) pressure. FIGS. 4 and 5 illustrate the Thrips damage ratings at three and four weeks, respectively, after planting. FIG. 6 illustrates the plant height seven weeks after planting. The cotton plants utilized were commercially available Fibermax cotton variety 960.

On to `O=[N+]([O-])NC1=NCCN1Cc1ccc(Cl)nc1` [E, imidacloprid], for which the “Thrips Damage Rating” value stood at 2.25 with Thrips [1] (3 weeks after planting), 2.4 in the experiment on Thrips [1] (4 weeks after planting), 2.88 in the experiment with Thrips [2] (3 weeks after planting) and 3 in the experiment on Thrips [2] (4 weeks after planting).

Consider `CNC(=O)O/N=C/C(C)(C)SC` [Sample D, aldicarb], for which the “Thrips Damage Rating” value in the experiment with Thrips [1] (3 weeks after planting) was 1.13; in the experiment on Thrips [1] (4 weeks after planting), 1.5; with Thrips [2] (3 weeks after planting) it was 2.5; in the experiment with Thrips [2] (4 weeks after planting), 2.1.

As for `O=[N+]([O-])NC1=NCCN1Cc1ccc(Cl)nc1` [B, imidacloprid], the “Thrips Damage Rating” value with Thrips [1] (3 weeks after planting) worked out at 2; in the experiment with Thrips [1] (4 weeks after planting), 2.3; in the experiment on Thrips [2] (3 weeks after planting) it was 2.63; in the experiment on Thrips [2] (4 weeks after planting), 2.5.

(Values after US20090099127A1, “Nematicidal Compositions and Methods” (priority 2005, published 2009).)
